Converted amounts (≈) assume the structure as drawn.

What all share (format): cell-based
Experiment [1] concerns Mannheimia haemolytica MH 6357 (M7/2, reference strain, cattle infection strain). Kind of experiment: MIC, broth-microdilution (CLSI VET01-A4), strain MH 6357. The following applies: Mannheimia haemolytica strain MH 6357, broth-microdilution; unit assumed. The method, boiled down:
(§1)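 MIC is the lowest compound concentration showing no visible growth by eye, read from doubling-dilution microdilution trays. Method followed CLSI VET01-A4, with interpretation under CLSI VET01-S3.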
(In broth dilution the organism is exposed to a series of concentrations in liquid medium.)

Experiment [2] has as its system Mannheimia haemolytica MH 6374 (ATCC 33396, reference strain). Kind of experiment: MIC, broth-microdilution (CLSI VET01-A4), strain MH 6374. Particulars: Mannheimia haemolytica strain MH 6374, broth-microdilution; unit assumed. In short, it runs like this: as §1
In experiment [3] the test system is Mannheimia haemolytica MH 10720 (154, BRD field isolate). Nature of the experiment: MIC, broth-microdilution (CLSI VET01-A4), strain MH 10720. Particulars: Mannheimia haemolytica strain MH 10720, broth-microdilution; unit assumed. In short, it runs like this:
as §1

For experiment [4], the system named is Mannheimia haemolytica MH 12587 (1071, BRD field isolate, macrolide-resistance: erm+, E+). Nature of the experiment: MIC, broth-microdilution (CLSI VET01-A4), strain MH 12587. Particulars: Mannheimia haemolytica strain MH 12587, broth-microdilution; unit assumed. The method, boiled down: as §1
Experiment [5] deals with Mannheimia haemolytica MH 13065 (XB0446-6003.9, BRD field isolate). Kind of experiment: MIC, broth-microdilution (CLSI VET01-A4), strain MH 13065. Particulars: Mannheimia haemolytica strain MH 13065, broth-microdilution; unit assumed. The method, boiled down:
as §1

Experiment [6] concerns Mannheimia haemolytica MH 13093 (XB0472-6014.1, BRD field isolate). Nature of the experiment: MIC, broth-microdilution (CLSI VET01-A4), strain MH 13093. The following applies: Mannheimia haemolytica strain MH 13093, broth-microdilution; unit assumed. The method, boiled down: as §1
Experiment [7] deals with Pasteurella multocida PM 6267 (P 2225 (L386), reference strain, mouse infection strain). Kind of experiment: MIC, broth-microdilution (CLSI VET01-A4), strain PM 6267. The following applies: Pasteurella multocida strain PM 6267, broth-microdilution; unit assumed. The method, boiled down:
as §1

Experiment [8] has as its system Pasteurella multocida PM 6391 (ATCC 43137, reference strain). Nature of the experiment: MIC, broth-microdilution (CLSI VET01-A4), strain PM 6391. Particulars: Pasteurella multocida strain PM 6391, broth-microdilution; unit assumed. The method, boiled down:
as §1

Experiment [9] has as its system Pasteurella multocida PM 10775 (080130003051, BRD field isolate). Nature of the experiment: MIC, broth-microdilution (CLSI VET01-A4), strain PM 10775. The following applies: Pasteurella multocida strain PM 10775, broth-microdilution; unit assumed. The method, boiled down:
as §1

Experiment [10] has as its system Pasteurella multocida PM 12080 (IV102277-0093, BRD field isolate). Kind of experiment: MIC, broth-microdilution (CLSI VET01-A4), strain PM 12080. Particulars: Pasteurella multocida strain PM 12080, broth-microdilution; unit assumed. In short, it runs like this: as §1

In experiment [1], `CC(C)[C@H](NC(=O)c1ccc(C#Cc2ccc(CNCC3CCCO3)cc2)cc1)C(=O)NO` (some centres unmarked) [Compound 200] yielded an MIC MH 6357 of 6.3 µg/mL (≈ 14 µM). Further, in [2], the MIC MH 6374 came to 3.1 µg/mL (≈ 6.9 µM). The MIC MH 10720 in experiment [3] was 0.8 µg/mL (≈ 1.78 µM). For the same compound, the MIC MH 12587 in [4] was determined as 6.3 µg/mL (≈ 14 µM). The compound also displayed an MIC MH 13065 in [5] of 1.6 µg/mL (≈ 3.56 µM). Besides, in experiment [6], the MIC MH 13093 is 3.1 µg/mL (≈ 6.9 µM). In [7], the MIC PM 6267 is ≤ 0.1 µg/mL. The MIC PM 6391 in experiment [8] was found to be 0.2 µg/mL (≈ 0.445 µM). Moreover, in [9], the MIC PM 10775 was ≤ 0.1 µg/mL. In experiment [10], the MIC PM 12080 was 0.2 µg/mL (≈ 0.445 µM).

As to `CCNCc1ccc(C#Cc2ccc(C(=O)N[C@H](C(=O)NO)C(C)C)cc2)cc1` [Compound 201], the MIC MH 6357 in [1] came out at 12.5 µg/mL (≈ 31.8 µM). In addition, the MIC MH 6374 in experiment [2] was found to be 6.3 µg/mL (≈ 16 µM). In experiment [3], this compound showed an MIC MH 10720 of 3.1 µg/mL (≈ 7.88 µM). The MIC MH 12587 in [4] was found to be 12.5 µg/mL (≈ 31.8 µM). Moreover, in [5], the MIC MH 13065 is 6.3 µg/mL (≈ 16 µM). For the same compound, in [6], the MIC MH 13093 turned out to be 6.3 µg/mL (≈ 16 µM). This compound yielded an MIC PM 6267 in experiment [7] of 0.4 µg/mL (≈ 1.02 µM). Also, the MIC PM 6391 in experiment [8] was 0.8 µg/mL (≈ 2.03 µM). The MIC PM 10775 in experiment [9] was ≤ 0.1 µg/mL. The MIC PM 12080 in [10] amounted to 0.4 µg/mL (≈ 1.02 µM).

In the case of `COCCCNCc1ccc(C#Cc2ccc(C(=O)N[C@H](C(=O)NO)C(C)C)cc2)cc1` [Compound 205], in experiment [1], the MIC MH 6357 worked out at 1.6 µg/mL (≈ 3.66 µM). The compound further returned an MIC MH 6374 in [2] of 3.1 µg/mL (≈ 7.09 µM). The MIC MH 10720 in experiment [3] amounted to 0.8 µg/mL (≈ 1.83 µM). Also, the MIC MH 12587 in [4] worked out at 6.3 µg/mL (≈ 14.4 µM). The MIC MH 13065 in experiment [5] was found to be 1.6 µg/mL (≈ 3.66 µM). In experiment [6], this compound displayed an MIC MH 13093 of 3.1 µg/mL (≈ 7.09 µM). In experiment [7], the MIC PM 6267 turned out to be 0.2 µg/mL (≈ 0.457 µM). In [8], the MIC PM 6391 amounted to 0.4 µg/mL (≈ 0.914 µM). Also, in [9], the MIC PM 10775 is ≤ 0.1 µg/mL. Moreover, the MIC PM 12080 in experiment [10] was found to be 0.4 µg/mL (≈ 0.914 µM).

In turn, `CCCNCc1ccc(C#Cc2ccc(C(=O)N[C@H](C(=O)NO)C(C)C)cc2)cc1` [Compound 206] had an MIC MH 6357 in [1] of 3.1 µg/mL (≈ 7.61 µM). This compound also had an MIC MH 6374 in [2] of 3.1 µg/mL (≈ 7.61 µM). For the same compound, the MIC MH 10720 in [3] stood at 0.8 µg/mL (≈ 1.96 µM). Besides, the MIC MH 12587 in [4] was 6.3 µg/mL (≈ 15.5 µM). The compound also showed an MIC MH 13065 in experiment [5] of 3.1 µg/mL (≈ 7.61 µM). In [6], the MIC MH 13093 came to 6.3 µg/mL (≈ 15.5 µM). The MIC PM 6267 in experiment [7] was ≤ 0.1 µg/mL. The MIC PM 6391 in [8] was determined as 0.4 µg/mL (≈ 0.982 µM). The MIC PM 10775 in experiment [9] is ≤ 0.1 µg/mL. The compound further came in with an MIC PM 12080 in experiment [10] of 0.2 µg/mL (≈ 0.491 µM).

Consider `CNCc1ccc(C#Cc2ccc(C(=O)N[C@H](C(=O)NO)C(C)C)cc2)cc1` [Compound 207], for which the MIC MH 6357 in experiment [1] came to 12.5 µg/mL (≈ 32.9 µM). In addition, the MIC MH 6374 in experiment [2] was found to be 12.5 µg/mL (≈ 32.9 µM). Besides, the MIC MH 10720 in experiment [3] came to 3.1 µg/mL (≈ 8.17 µM). In [4], this compound had an MIC MH 12587 of 12.5 µg/mL (≈ 32.9 µM). In addition, the MIC MH 13065 in experiment [5] was determined as 6.3 µg/mL (≈ 16.6 µM). Moreover, in [6], the MIC MH 13093 came to 12.5 µg/mL (≈ 32.9 µM). Further, in experiment [7], the MIC PM 6267 was 0.2 µg/mL (≈ 0.527 µM). The compound also gave an MIC PM 6391 in [8] of 0.8 µg/mL (≈ 2.11 µM). Also, in experiment [9], the MIC PM 10775 is ≤ 0.1 µg/mL. The MIC PM 12080 in experiment [10] was found to be 0.8 µg/mL (≈ 2.11 µM).

In experiment [1], `CC(C)[C@H](NC(=O)c1ccc(C#Cc2ccc(CNC3CCCCC3)cc2)cc1)C(=O)NO` [Compound 208] registered an MIC MH 6357 of 12.5 µg/mL (≈ 27.9 µM). This compound showed an MIC MH 6374 in experiment [2] of 12.5 µg/mL (≈ 27.9 µM). This compound also displayed an MIC MH 10720 in experiment [3] of 3.1 µg/mL (≈ 6.93 µM). The compound further gave an MIC MH 12587 in experiment [4] of 25 µg/mL (≈ 55.9 µM). For the same compound, the MIC MH 13065 in experiment [5] came out at 12.5 µg/mL (≈ 27.9 µM). Moreover, the MIC MH 13093 in [6] came to 12.5 µg/mL (≈ 27.9 µM). Further, in experiment [7], the MIC PM 6267 was 0.2 µg/mL (≈ 0.447 µM). Besides, in experiment [8], the MIC PM 6391 amounted to 0.4 µg/mL (≈ 0.894 µM). The MIC PM 10775 in [9] is ≤ 0.1 µg/mL. For the same compound, the MIC PM 12080 in experiment [10] was found to be 0.2 µg/mL (≈ 0.447 µM).

For `CC(C)[C@H](NC(=O)c1ccc(C#Cc2ccc(CNC3CCCC3)cc2)cc1)C(=O)NO` [Compound 209], in [1], the MIC MH 6357 worked out at 3.1 µg/mL (≈ 7.15 µM). For the same compound, the MIC MH 6374 in experiment [2] was determined as 6.3 µg/mL (≈ 14.5 µM). Besides, in experiment [3], the MIC MH 10720 came out at 1.6 µg/mL (≈ 3.69 µM). The same compound yielded an MIC MH 12587 in experiment [4] of 12.5 µg/mL (≈ 28.8 µM). Besides, the MIC MH 13065 in experiment [5] worked out at 6.3 µg/mL (≈ 14.5 µM). In experiment [6], this compound yielded an MIC MH 13093 of 12.5 µg/mL (≈ 28.8 µM). For the same compound, the MIC PM 6267 in experiment [7] was ≤ 0.1 µg/mL. In experiment [8], this compound displayed an MIC PM 6391 of 0.4 µg/mL (≈ 0.923 µM). Further, the MIC PM 10775 in experiment [9] was ≤ 0.1 µg/mL. In experiment [10], this compound returned an MIC PM 12080 of 0.2 µg/mL (≈ 0.461 µM).

`CC(C)[C@H](NC(=O)c1ccc(C#Cc2ccc(CNC3CCC3)cc2)cc1)C(=O)NO` [Compound 210] gave an MIC MH 6357 in experiment [1] of 1.6 µg/mL (≈ 3.81 µM). Further, the MIC MH 6374 in experiment [2] is 3.1 µg/mL (≈ 7.39 µM). Moreover, the MIC MH 10720 in experiment [3] was 0.8 µg/mL (≈ 1.91 µM). In experiment [4], this compound had an MIC MH 12587 of 6.3 µg/mL (≈ 15 µM). The compound also returned an MIC MH 13065 in [5] of 1.6 µg/mL (≈ 3.81 µM). For the same compound, the MIC MH 13093 in experiment [6] was 3.1 µg/mL (≈ 7.39 µM). The MIC PM 6267 in experiment [7] was ≤ 0.1 µg/mL. The compound also had an MIC PM 6391 in [8] of 0.2 µg/mL (≈ 0.477 µM). The MIC PM 10775 in experiment [9] was ≤ 0.1 µg/mL. In addition, the MIC PM 12080 in experiment [10] was ≤ 0.1 µg/mL.

Source of the values: US11034650B2, “Compounds useful for treating a Mannheimia haemolytica or Histophilus somni infection” (Intervet Inc., priority 2016, dated 2021).
